We go through 19 compounds from patent US11596639B2, “Substituted indole Mcl-1 inhibitors” (Vanderbilt University, priority 2016, dated 2023).

Usually Ki stands for a dissociation constant, usually derived from enzyme kinetics or from competition with a known ligand.

The structures appear in SMILES notation. Read-outs that look alike come from different tables or passages of the source.

Experiment [1] has as its system H929 human cancer cell lines. Kind of experiment: Cellular viability / proliferation (Cell TiterGlo, 72 h). Type of experiment: cell-based. In a few lines:
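Top dose 50 μM, serially diluted 2-fold, applied one day after seeding (1,000 cells/well, 10% FBS), DMSO below 1%.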
For orientation: ATP-based viability assays read luminescence as a measure of living cells.

Experiment [2] has as its target Mcl-1 (Homo sapiens (Human), UniProt Q07820). Kind of experiment: Fluorescence polarization anisotropy (FPA) competition assay, FITC-Bak or FITC-Bim BH3 peptide. Format: binding. The note with it: read-out: Ki for Inhibition of Mcl-1 by FPA assay. Background: In fluorescence polarisation assays a small probe gives low polarisation when free and higher when bound to something large.

The mark [3] stands for this setting: Homo sapiens, NCI-H929, 72 h, read-out: GI50 on cellular proliferation of H929 human cancer cell lines, H929 cells, 72 h, Cell TiterGlo, 10% FBS.
The mark [4] stands for this setting: read-out: GI50 on cellular proliferation of H929 human cancer cell lines, H929 cells, 72 h, Cell TiterGlo, 10% FBS.

Chain of Mcl-1 (Q07820 172-327): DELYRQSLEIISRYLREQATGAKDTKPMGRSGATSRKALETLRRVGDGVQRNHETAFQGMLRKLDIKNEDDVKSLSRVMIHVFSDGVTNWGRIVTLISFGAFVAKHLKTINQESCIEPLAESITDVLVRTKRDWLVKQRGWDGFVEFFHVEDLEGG

As for `Cc1cc(OCCCc2c3n(c4c(-c5c(C)ncnc5C)c(Cl)ccc24)[C@H](C)CN(c2cn(C)c4ccc(C(=O)O)cc24)C3=O)cc(C)c1Cl` [Example 177, 3-[(4R)-7-chloro-10-[3-(4-chloro-3,5-dimethyl-phenoxy)propyl]-6-(4,6-dimethylpyrimidin-5-yl)-4-methyl-1-oxo-3,4-dihydropyrazino[1,2-a]indol-2-yl]-1-methyl-indole-5-carboxylic acid], in experiment [1] (setting [3]), the GI50 was determined as 270 nM. In addition, in experiment [2], the Ki is < 1 nM.
Consider `Cc1cc(OCCCc2c3n(c4c(-c5c(C)nn(C)c5C)c(Cl)ccc24)[C@H](C)CN(c2cccc4cc(C(=O)O)n(C)c24)C3=O)cc(C)c1Cl` [Example 178, (R)-7-(7-Chloro-10-(3-(4-chloro-3,5-dimethylphenoxy)propyl)-4-methyl-1-oxo-6-(1,3,5-trimethyl-1H-pyrazol-4-yl)-3,4-dihydropyrazino[1,2-a]indol-2(1H)-yl)-1-methyl-1H-indole-2-carboxylic acid], for which the GI50 in experiment [1] (setting [3]) was < 200 nM. Moreover, in experiment [2], the Ki is < 1 nM.
As for `Cc1cc(OCCCc2c3n(c4c(-c5c(C)nn(C)c5C)c(Cl)ccc24)[C@H](C)CN(c2nn(C)c4cccc(C(=O)O)c24)C3=O)cc(C)c1Cl` [Example 179, (R)-3-(7-Chloro-10-(3-(4-chloro-3,5-dimethylphenoxy)propyl)-4-methyl-1-oxo-6-(1,3,5-trimethyl-1H-pyrazol-4-yl)-3,4-dihydropyrazino[1,2-a]indol-2(1H)-yl)-1-methyl-1H-indazole-4-carboxylic acid], the GI50 in experiment [1] (setting [4]) turned out to be 4700 nM. The inhibitory constant (Ki) in experiment [2] is < 1 nM.
With `Cc1cc(OCCCc2c3n(c4c(-c5c(C)nn(C)c5C)c(Cl)ccc24)[C@H](C)CN(c2cc4ccc(C(=O)O)cc4n2C)C3=O)cc(C)c1Cl` [Example 180, 2-[(4R)-7-chloro-10-[3-(4-chloro-3,5-dimethyl-phenoxy)propyl]-4-methyl-1-oxo-6-(1,3,5-trimethylpyrazol-4-yl)-3,4-dihydropyrazino[1,2-a]indol-2-yl]-1-methyl-indole-6-carboxylic acid], in experiment [1] (setting [3]), the GI50 is 1500 nM. Moreover, the Ki in experiment [2] turned out to be 2.1 nM.
Take `COCCn1cc(C(=O)O)c2c(N3C[C@@H](C)n4c(c(CCCOc5cc(C)c(Cl)c(C)c5)c5ccc(Cl)c(-c6c(C)nn(C)c6C)c54)C3=O)cccc21` [Example 181, 4-[(4R)-7-chloro-10-[3-(4-chloro-3,5-dimethyl-phenoxy)propyl]-4-methyl-1-oxo-6-(1,3,5-trimethylpyrazol-4-yl)-3,4-dihydropyrazino[1,2-a]indol-2-yl]-1-(2-methoxyethyl)indole-3-carboxylic acid]: in experiment [1] (setting [3]), the GI50 was determined as 2000 nM. For the same compound, the inhibition constant (Ki) in experiment [2] is 1.4 nM.
For `Cc1cc(OCCCc2c3n(c4c(-c5c(C)nn(C)c5C)c(Cl)ccc24)[C@H](C)CN(c2cccc4c2c(C(=O)O)cn4C)C3=O)cc(C)c1Cl` [Example 182, 4-[(4R)-7-chloro-10-[3-(4-chloro-3,5-dimethyl-phenoxy)propyl]-4-methyl-1-oxo-6-(1,3,5-trimethylpyrazol-4-yl)-3,4-dihydropyrazino[1,2-a]indol-2-yl]-1-methyl-indole-3-carboxylic acid], in experiment [1] (setting [3]), the GI50 amounted to 1500 nM. Moreover, in experiment [2], the Ki is < 1 nM.
As for `Cc1cc(N2C[C@@H](C)n3c(c(CCCOc4cc(C)c(Cl)c(C)c4)c4ccc(Cl)c(-c5c(C)nn(C)c5C)c43)C2=O)c2c(c1)c(C(=O)O)cn2C` [Example 183, (R)-7-(7-chloro-10-(3-(4-chloro-3,5-dimethylphenoxy)propyl)-4-methyl-1-oxo-6-(1,3,5-trimethyl-1H-pyrazol-4-yl)-3,4-dihydropyrazino[1,2-a]indol-2(1H)-yl)-1,5-dimethyl-1H-indole-3-carboxylic acid], the GI50 in experiment [1] (setting [4]) came out at 360 nM. Moreover, the inhibitory constant (Ki) in experiment [2] is < 1 nM.
As for `Cc1cc(OCCCc2c3n(c4c(-c5c(C)nn(C)c5C)c(Cl)ccc24)[C@H](C)CN(c2cccc4nc(C(=O)O)ccc24)C3=O)cc(C)c1Cl` [Example 184, (R)-5-(7-chloro-10-(3-(4-chloro-3,5-dimethylphenoxy)propyl)-4-methyl-1-oxo-6-(1,3,5-trimethyl-1H-pyrazol-4-yl)-3,4-dihydropyrazino[1,2-a]indol-2(1H)-yl)quinoline-2-carboxylic acid], the GI50 in experiment [1] (setting [3]) is 770 nM. Further, in experiment [2], the Ki is < 1 nM.
Regarding `Cc1cc(OCCCc2c3n(c4c(-c5c(C)nn(C)c5C)c(Cl)ccc24)[C@H](C)CN(c2ccc4cc(C(=O)O)ccc4c2)C3=O)cc(C)c1Cl` [Example 185, (R)-6-(7-Chloro-10-(3-(4-chloro-3,5-dimethylphenoxy)propyl)-4-methyl-1-oxo-6-(1,3,5-trimethyl-1H-pyrazol-4-yl)-3,4-dihydropyrazino[1,2-a]indol-2(1H)-yl)-2-naphthoic acid], in experiment [1] (setting [3]), the GI50 worked out at 2900 nM. The Ki in experiment [2] was found to be 4.6 nM.
Regarding `Cc1cc(OCCCc2c3n(c4c(-c5c(C)nn(C)c5C)c(Cl)ccc24)[C@H](C)CN(c2cccc4cc(C(=O)O)ccc24)C3=O)cc(C)c1Cl` [Example 186, (R)-5-(7-Chloro-10-(3-(4-chloro-3,5-dimethylphenoxy)propyl)-4-methyl-1-oxo-6-(1,3,5-trimethyl-1H-pyrazol-4-yl)-3,4-dihydropyrazino[1,2-a]indol-2(1H)-yl)-2-naphthoic acid], the GI50 in experiment [1] (setting [3]) was < 200 nM. For the same compound, the Ki in experiment [2] was < 1 nM.
In the case of `Cc1cc(OCCCc2c3n(c4c(-c5c(C)nn(C)c5C)c(Cl)ccc24)[C@H](C)CN(c2cc(C(=O)O)c4ccccc4c2)C3=O)cc(C)c1Cl` [Example 188, (R)-3-(7-Chloro-10-(3-(4-chloro-3,5-dimethylphenoxy)propyl)-4-methyl-1-oxo-6-(1,3,5-trimethyl-1H-pyrazol-4-yl)-3,4-dihydropyrazino[1,2-a]indol-2(1H)-yl)-1-naphthoic acid], the GI50 in experiment [1] (setting [3]) was determined as 2700 nM. For the same compound, in experiment [2], the Ki worked out at 6.4 nM.
`Cc1cc(OCCCc2c3n(c4c(-c5c(C)nn(C)c5C)c(Cl)ccc24)[C@H](C)CN(c2ccc(C(=O)O)c4ccccc24)C3=O)cc(C)c1Cl` [Example 189, (R)-4-(7-Chloro-10-(3-(4-chloro-3,5-dimethylphenoxy)propyl)-4-methyl-1-oxo-6-(1,3,5-trimethyl-1H-pyrazol-4-yl)-3,4-dihydropyrazino[1,2-a]indol-2(1H)-yl)-1-naphthoic acid]: in experiment [1] (setting [3]), the GI50 turned out to be 920 nM. The inhibitory constant (Ki) in experiment [2] amounted to 1.2 nM.
In the case of `Cc1cc(OCCCc2c3n(c4c(-c5c(C)nn(C)c5C)c(Cl)ccc24)[C@H](C)CN(c2c(C(=O)O)ccc4ccccc24)C3=O)cc(C)c1Cl` [Example 190, (R)-1-(7-Chloro-10-(3-(4-chloro-3,5-dimethylphenoxy)propyl)-4-methyl-1-oxo-6-(1,3,5-trimethyl-1H-pyrazol-4-yl)-3,4-dihydropyrazino[1,2-a]indol-2(1H)-yl)-2-naphthoic acid], the GI50 in experiment [1] (setting [3]) is 2200 nM. Further, in experiment [2], the inhibition constant (Ki) is < 1 nM.
On the same counts, the results for `Cc1cc(OCCCc2c3n(c4c(-c5c(C)nn(C)c5C)c(Cl)ccc24)[C@H](C)CN(c2cccc4cccc(C(=O)O)c24)C3=O)cc(C)c1Cl` [Example 191, (R)-8-(7-Chloro-10-(3-(4-chloro-3,5-dimethylphenoxy)propyl)-4-methyl-1-oxo-6-(1,3,5-trimethyl-1H-pyrazol-4-yl)-3,4-dihydropyrazino[1,2-a]indol-2(1H)-yl)-1-naphthoic acid] are 3200 nM and < 1 nM.
Regarding `COc1ccc(N2C[C@@H](C)n3c(c(CCCOc4cc(C)c(Cl)c(C)c4)c4ccc(Cl)c(-c5c(C)nn(C)c5C)c43)C2=O)c2c1cc(C(=O)O)n2C` [Example 192, (R)-7-(7-Chloro-10-(3-(4-chloro-3,5-dimethylphenoxy)propyl)-4-methyl-1-oxo-6-(1,3,5-trimethyl-1H-pyrazol-4-yl)-3,4-dihydropyrazino[1,2-a]indol-2(1H)-yl)-4-methoxy-1-methyl-1H-indole-2-carboxylic acid], the GI50 in experiment [1] (setting [3]) was < 200 nM. Also, the Ki in experiment [2] is < 1 nM.
In the case of `Cc1cc(OCCCc2c3n(c4c(-c5c(C)nn(C)c5C)c(Cl)ccc24)[C@H](C)CN(c2cccc4cc(C(=O)O)oc24)C3=O)cc(C)c1Cl` [Example 194, (R)-7-(7-Chloro-10-(3-(4-chloro-3,5-dimethylphenoxy)propyl)-4-methyl-1-oxo-6-(1,3,5-trimethyl-1H-pyrazol-4-yl)-3,4-dihydropyrazino[1,2-a]indol-2(1H)-yl)benzofuran-2-carboxylic acid], the GI50 in experiment [1] (setting [3]) turned out to be 2300 nM. In experiment [2], the Ki was < 1 nM.
On the same counts, the results for `Cc1cc(OCCCc2c3n(c4c(-c5c(C)nn(C)c5C)c(Cl)ccc24)[C@H](C)CN(c2cccc4c2C(=O)CC4)C3=O)cc(C)c1Cl` [Example 195, (R)-7-Chloro-10-(3-(4-chloro-3,5-dimethylphenoxy)propyl)-4-methyl-2-(3-oxo-2,3-dihydro-1H-inden-4-yl)-6-(1,3,5-trimethyl-1H-pyrazol-4-yl)-3,4-dihydropyrazino[1,2-a]indol-1(2H)-one] are 1800 nM and 3.6 nM.
In the case of `Cc1cc(OCCCc2c3n(c4c(-c5c(C)nn(C)c5C)c(Cl)ccc24)[C@H](C)CN(c2ccc4oc(C(=O)O)cc4c2)C3=O)cc(C)c1Cl` [Example 196, (R)-5-(7-Chloro-10-(3-(4-chloro-3,5-dimethylphenoxy)propyl)-4-methyl-1-oxo-6-(1,3,5-trimethyl-1H-pyrazol-4-yl)-3,4-dihydropyrazino[1,2-a]indol-2(1H)-yl)benzofuran-2-carboxylic acid], the GI50 in experiment [1] (setting [3]) turned out to be 3400 nM. The Ki in experiment [2] was < 1 nM.
As to `Cc1cc(OCCCc2c3n(c4c(-c5c(C)nn(C)c5C)c(Cl)ccc24)[C@H](C)CN(c2cccc4c2cc(C(=O)O)n4C(C)C)C3=O)cc(C)c1Cl` [Example 197, (R)-4-(7-Chloro-10-(3-(4-chloro-3,5-dimethylphenoxy)propyl)-4-methyl-1-oxo-6-(1,3,5-trimethyl-1H-pyrazol-4-yl)-3,4-dihydropyrazino[1,2-a]indol-2(1H)-yl)-1-isopropyl-1H-indole-2-carboxylic acid], the GI50 in experiment [1] (setting [3]) is 670 nM. Further, in experiment [2], the Ki is < 1 nM.
